Test results as given in PubChem BioAssay (NCI).
Several values for one entry are separate records, joined by “and”; a condition that tells them apart may be missing. Equal entries are not always repeated.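 Here, GI50 denotes the concentration required for 50% inhibition of growth. TGI: total growth inhibition.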

Assays:
Assay in all cases: growth of human tumour cells (NCI), 384-well format
OVCAR-8 ovarian = tested on: OVCAR-8 ovarian
HL-60(TB) leukemia = tested on: HL-60(TB) leukemia
COLO 205 colon = tested on: COLO 205 colon
M14 melanoma = tested on: M14 melanoma
BT-549 breast = tested on: BT-549 breast
HOP-62 NSCLC = tested on: HOP-62 NSCLC
PC-3 prostate = tested on: PC-3 prostate
SNB-19 CNS = tested on: SNB-19 CNS
T-47D breast = tested on: T-47D breast
NCI-H322M lung = tested on: NCI-H322M lung
MDA-MB-231 breast = tested on: MDA-MB-231 breast
786-0 renal = tested on: 786-0 renal
TK-10 renal = tested on: TK-10 renal
MDA-MB-435 melanoma = tested on: MDA-MB-435 melanoma
SNB-75 CNS = tested on: SNB-75 CNS
KM12 colon = tested on: KM12 colon
OVCAR-5 ovarian = tested on: OVCAR-5 ovarian
SK-MEL-5 melanoma = tested on: SK-MEL-5 melanoma
IGROV1 ovarian = tested on: IGROV1 ovarian
HCT-15 colon = tested on: HCT-15 colon
SF-295 CNS = tested on: SF-295 CNS
OVCAR-3 ovarian = tested on: OVCAR-3 ovarian
NCI-H226 lung = tested on: NCI-H226 lung
U251 glioblastoma = tested on: U251 glioblastoma
NCI-H460 NSCLC = tested on: NCI-H460 NSCLC
NCI-H522 lung = tested on: NCI-H522 lung
CAKI-1 renal = tested on: CAKI-1 renal
MCF7 breast = tested on: MCF7 breast
A498 renal = tested on: A498 renal
OVCAR-4 ovarian = tested on: OVCAR-4 ovarian
K-562 leukemia = tested on: K-562 leukemia
UO-31 renal = tested on: UO-31 renal
HS 578T breast = tested on: HS 578T breast
RXF 393 renal = tested on: RXF 393 renal
NCI-H23 lung = tested on: NCI-H23 lung
MDA-MB-468 breast = tested on: MDA-MB-468 breast
EKVX NSCLC = tested on: EKVX NSCLC
A549 NSCLC = tested on: A549 NSCLC
HCT-116 colon = tested on: HCT-116 colon
MALME-3M melanoma = tested on: MALME-3M melanoma
SW-620 colon = tested on: SW-620 colon
SF-539 CNS = tested on: SF-539 CNS
DU-145 prostate = tested on: DU-145 prostate
HT29 colon = tested on: HT29 colon
SF-268 CNS = tested on: SF-268 CNS
UACC-257 melanoma = tested on: UACC-257 melanoma
UACC-62 melanoma = tested on: UACC-62 melanoma
SK-MEL-28 melanoma = tested on: SK-MEL-28 melanoma
SK-OV-3 ovarian = tested on: SK-OV-3 ovarian
SN12C renal = tested on: SN12C renal
SK-MEL-2 melanoma = tested on: SK-MEL-2 melanoma
HOP-92 NSCLC = tested on: HOP-92 NSCLC
ACHN renal = tested on: ACHN renal

SMILES: COc1ccc(C2=N[C@@H](c3ccc(Cl)cc3)[C@@H](c3ccc(Cl)cc3)N2C(=O)N2CCNC(=O)C2)c(OC(C)C)c1
- GI50 (OVCAR-8 ovarian): 15.6 µM and 11.9 µM and 10.5 µM
- TGI (OVCAR-8 ovarian): 29.1 µM and 24.4 µM and 22.3 µM
- GI50 (HL-60(TB) leukemia): 2.99 µM and 3.06 µM and 3.55 µM
- TGI (HL-60(TB) leukemia): 12.9 µM and 15.7 µM and 15.8 µM
- GI50 (COLO 205 colon): 15.9 µM and 16.8 µM and 14.9 µM
- TGI (COLO 205 colon): 29.5 µM and 30.7 µM and 28.3 µM
- GI50 (M14 melanoma): 13.1 µM and 10 µM and 11.1 µM
- TGI (M14 melanoma): 25.8 µM and 21.6 µM and 23.1 µM
- GI50 (BT-549 breast): 16.6 µM and 16.9 µM
- TGI (BT-549 breast): 30.3 µM and 30.2 µM and 30.6 µM
- GI50 (HOP-62 NSCLC): 15.6 µM and 2.36 µM and 5.46 µM
- TGI (HOP-62 NSCLC): 29.1 µM and 19.6 µM and 20.5 µM
- GI50 (PC-3 prostate): 12.5 µM and 13 µM and 12.6 µM
- TGI (PC-3 prostate): 25.1 µM and 25.8 µM and 25.2 µM
- GI50 (SNB-19 CNS): 14.3 µM and 14.6 µM
- TGI (SNB-19 CNS): 27.4 µM and 27.9 µM
- GI50 (T-47D breast): 17 µM and 14.7 µM and 13.8 µM
- TGI (T-47D breast): 30.7 µM and 28 µM and 26.7 µM
- GI50 (NCI-H322M lung): 19.3 µM and 17.7 µM and 13.7 µM
- TGI (NCI-H322M lung): 33.6 µM and 31.6 µM and 26.7 µM
- GI50 (MDA-MB-231 breast): 17 µM and 14.1 µM and 12.9 µM
- TGI (MDA-MB-231 breast): 30.8 µM and 27.1 µM and 25.6 µM
- GI50 ([…]-0 renal): 14.7 µM and 14 µM and 11.2 µM
- TGI (786-0 renal): 27.9 µM and 27.1 µM and 23.3 µM
- GI50 (TK-10 renal): 15.1 µM and 13.5 µM and 11.3 µM
- TGI (TK-10 renal): 28.5 µM and 26.4 µM and 23.5 µM
- GI50 (MDA-MB-435 melanoma): 13.8 µM and 16.4 µM and 15.8 µM
- TGI (MDA-MB-435 melanoma): 26.8 µM and 30.1 µM and 29.4 µM
- GI50 (SNB-75 CNS): 13.3 µM and 11.9 µM and 11.6 µM
- TGI (SNB-75 CNS): 26.1 µM and 24.2 µM and 23.9 µM
- TGI (KM12 colon): 27.8 µM and 12.7 µM and 12.3 µM
- GI50 (OVCAR-5 ovarian): 16.9 µM and 17.6 µM and 16.7 µM
- TGI (OVCAR-5 ovarian): 30.6 µM and 31.8 µM and 30.5 µM
- GI50 (SK-MEL-5 melanoma): 14.3 µM and 8.52 µM and 7.04 µM
- TGI (SK-MEL-5 melanoma): 27.5 µM and 20.6 µM and 20 µM
- GI50 (IGROV1 ovarian): 13.5 µM and 10.9 µM and 7.76 µM
- TGI (IGROV1 ovarian): 26.5 µM and 23 µM and 21 µM
- GI50 (HCT-15 colon): 16 µM and 16.1 µM and 14 µM
- TGI (HCT-15 colon): 29.7 µM and 30.1 µM and 27.1 µM
- GI50 (SF-295 CNS): 15.3 µM and 14.5 µM and 12.9 µM
- TGI (SF-295 CNS): 28.7 µM and 27.7 µM and 25.7 µM
- GI50 (OVCAR-3 ovarian): 12.8 µM and 12 µM and 12.1 µM
- TGI (OVCAR-3 ovarian): 25.5 µM and 24.6 µM
- TGI (NCI-H226 lung): 23.7 µM and 2.47 µM and 3.4 µM
- GI50 (U251 glioblastoma): 14.7 µM and 13.7 µM and 10.9 µM
- TGI (U251 glioblastoma): 28 µM and 26.7 µM and 22.9 µM
- GI50 (NCI-H460 NSCLC): 15.3 µM and 10.4 µM and 8.98 µM
- TGI (NCI-H460 NSCLC): 28.9 µM and 22.5 µM and 21.3 µM
- GI50 (NCI-H522 lung): 14.1 µM and 15 µM and 14.8 µM
- TGI (NCI-H522 lung): 27.1 µM and 28.3 µM and 28 µM
- TGI (CAKI-1 renal): 21.1 µM and 11.9 µM and 12.4 µM
- GI50 (MCF7 breast): 3.43 µM and 1.73 µM and 0.718 µM
- TGI (MCF7 breast): 16.8 µM and 8.38 µM and 8.52 µM
- TGI (A498 renal): 23.1 µM and 13.1 µM and 13.5 µM
- GI50 (OVCAR-4 ovarian): 14 µM and 14.2 µM and 13.8 µM
- TGI (OVCAR-4 ovarian): 27 µM and 27.4 µM and 26.8 µM
- GI50 (K-562 leukemia): 11.4 µM and 4.93 µM and 2.55 µM
- TGI (K-562 leukemia): 23.9 µM and 20.3 µM and 17 µM
- GI50 (UO-31 renal): 11.2 µM and 4.63 µM and 5.1 µM
- TGI (UO-31 renal): 23.3 µM and 15.8 µM and 16 µM
- GI50 (HS 578T breast): 13.4 µM and 12.8 µM and 12.2 µM
- TGI (HS 578T breast): 26.2 µM and 25.5 µM and 24.7 µM
- TGI (RXF 393 renal): 24.8 µM and 16.3 µM and 14.9 µM
- GI50 (NCI-H23 lung): 14.5 µM and 15.1 µM
- TGI (NCI-H23 lung): 27.6 µM and 28.5 µM
- GI50 (MDA-MB-468 breast): 12.4 µM and 11 µM and 11.5 µM
- TGI (MDA-MB-468 breast): 24.9 µM and 23 µM and 23.7 µM
- GI50 (EKVX NSCLC): 15 µM and 15.3 µM and 14.6 µM
- TGI (EKVX NSCLC): 28.3 µM and 28.7 µM and 27.8 µM
- GI50 (A549 NSCLC): 14.6 µM and 2.28 µM and 2.23 µM
- TGI (A549 NSCLC): 27.8 µM and 14.7 µM and 13.8 µM
- TGI (HCT-116 colon): 24 µM and 14.5 µM and 12.8 µM
- GI50 (MALME-3M melanoma): 8.12 µM and 2.75 µM and 5.41 µM
- TGI (MALME-3M melanoma): 20.3 µM and 19.3 µM and 19.7 µM
- GI50 (SW-620 colon): 13.1 µM and 11 µM and 3.58 µM
- TGI (SW-620 colon): 26 µM and 23.3 µM and 19.4 µM
- GI50 (SF-539 CNS): 16.1 µM and 13.7 µM and 10.6 µM
- TGI (SF-539 CNS): 29.6 µM and 26.8 µM and 22.4 µM
- GI50 (DU-145 prostate): 15.2 µM and 15.7 µM
- TGI (DU-145 prostate): 28.6 µM and 29.3 µM and 28.7 µM
- GI50 (HT29 colon): 11.8 µM and 13.4 µM and 10.5 µM
- TGI (HT29 colon): 24.2 µM and 26.3 µM and 22.3 µM
- GI50 (SF-268 CNS): 16.7 µM and 13.4 µM and 10.7 µM
- TGI (SF-268 CNS): 30.4 µM and 26.4 µM and 22.6 µM
- GI50 (UACC-257 melanoma): 15.5 µM and 5.8 µM and 8.65 µM
- TGI (UACC-257 melanoma): 28.9 µM and 18 µM and 20.8 µM
- TGI (UACC-62 melanoma): 21.8 µM and 8.99 µM and 11.3 µM
- GI50 (SK-MEL-28 melanoma): 15.6 µM and 18.7 µM and 18 µM
- TGI (SK-MEL-28 melanoma): 29 µM and 32.9 µM and 32 µM
- GI50 (SK-OV-3 ovarian): 19.7 µM and 16 µM and 12.9 µM
- TGI (SK-OV-3 ovarian): 34 µM and 29.6 µM and 25.7 µM
- GI50 (SN12C renal): 15.5 µM and 17.2 µM and 16.1 µM
- TGI (SN12C renal): 28.9 µM and 31 µM and 29.6 µM
- GI50 (SK-MEL-2 melanoma): 18.7 µM and 18.1 µM and 14.5 µM
- TGI (SK-MEL-2 melanoma): 32.7 µM and 32.1 µM and 27.7 µM
- GI50 (HOP-92 NSCLC): 15.2 µM and 13.4 µM and 11.8 µM
- TGI (HOP-92 NSCLC): 28.5 µM and 26.3 µM and 24.1 µM
- TGI (ACHN renal): 24.2 µM and 11.4 µM and 11.2 µM
